Results taken from ChEMBL document CHEMBL1649274, “Mutational upregulation of a resistance-nodulation-cell division-type multidrug efflux pump, SdeAB, upon exposure to a biocide, cetylpyridinium chloride, and antibiotic resistance in Serratia marcescens” (Antimicrob Agents Chemother, 2009).
≈ marks a conversion by molar mass, not a printed value.

Legend:
Serratia marcescens [1] = assay: microbe, parasite or virus in culture; format: functional; details: ATCC 13880
Description: (§1) Antimicrobial activity against Serratia marcescens ATCC 13880 by broth dilution method

Serratia marcescens [2] = assay: Antimicrobial activity against cetylpyridinium chloride-resistant Serratia marcescens 01 by broth dilution method; format: functional
Serratia marcescens [3] = assay: Antimicrobial activity against cetylpyridinium chloride-sensitive Serratia marcescens 79 by broth dilution method; format: functional
Serratia marcescens [4] = assay: Antimicrobial activity against cetylpyridinium chloride-sensitive Serratia marcescens 71 by broth dilution method; format: functional
Serratia marcescens [5] = assay: Antimicrobial activity against cetylpyridinium chloride-resistant Serratia marcescens 01 harboring plasmid STV29 by broth dilution method; format: functional
Serratia marcescens [6] = assay: Antimicrobial activity against cetylpyridinium chloride-resistant Serratia marcescens 011 harboring plasmid STV28 expressing sdeB gene by broth dilution method; format: functional
Serratia marcescens [7] = assay: Antimicrobial activity against cetylpyridinium chloride-resistant Serratia marcescens HMS011 by broth dilution method; format: functional
Serratia marcescens [8] = assay: Antimicrobial activity against cetylpyridinium chloride-resistant Serratia marcescens HMS011 harboring plasmid STV28 expressing sdeB gene by broth dilution method; format: functional
Serratia marcescens [9] = assay: Antimicrobial activity against cetylpyridinium chloride-sensitive Serratia marcescens 79 harboring plasmid STV29 by broth dilution method; format: functional
Serratia marcescens [10] = assay: Antimicrobial activity against Serratia marcescens ATCC 13880 harboring plasmid STV29 by broth dilution method; format: functional
Serratia marcescens [11] = assay: Antimicrobial activity against cetylpyridinium chloride-sensitive Serratia marcescens 79 harboring plasmid STV29 expressing hasF gene by broth dilution method; format: functional
Serratia marcescens [12] = assay: Antimicrobial activity against cetylpyridinium chloride-resistant Serratia marcescens 011 by broth dilution method; format: functional
Serratia marcescens [13] = assay: Antimicrobial activity against cetylpyridinium chloride-sensitive Serratia marcescens 71 harboring plasmid STV29 by broth dilution method; format: functional
Serratia marcescens [14] = assay: Antimicrobial activity against cetylpyridinium chloride-sensitive Serratia marcescens 71 harboring plasmid STV29 expressing hasF gene by broth dilution method; format: functional
Serratia marcescens [15] = assay: Cellular uptake at Serratia marcescens ATCC 13880 at 50 ug/ml after 60 mins by spectrofluorometry; format: ADME, organism-based; details: in vivo, 1 h
Serratia marcescens [16] = assay: Cellular uptake at cetylpyridinium chloride-resistant Serratia marcescens 01 at 50 ug/ml after 60 mins by spectrofluorometry in presence of […] proteon conductor CCCP; format: ADME, organism-based; details: in vivo, 1 h
Serratia marcescens [17] = assay: Cellular uptake at cetylpyridinium chloride-resistant Serratia marcescens 01 at 50 ug/ml after 60 mins by spectrofluorometry; format: ADME, organism-based; details: in vivo, 1 h
Serratia marcescens [18] = assay: Cellular uptake at Serratia marcescens ATCC 13880 at 50 ug/ml after 60 mins by spectrofluorometry in presence of […] proteon conductor CCCP; format: ADME, organism-based; details: in vivo, 1 h
Serratia marcescens [19] = details: 71
Serratia marcescens [20] = details: ATCC 13880
Description: as §1

Serratia marcescens [21] = details: 01
Serratia marcescens [22] = details: 79

Row | Compound | MIC (Serratia marcescens [1]) | MIC (Serratia marcescens [2]) | MIC (Serratia marcescens [3]) | MIC (Serratia marcescens [4]) | MIC (Serratia marcescens [5]) | MIC (Serratia marcescens [6]) | MIC (Serratia marcescens [7]) | MIC (Serratia marcescens [8]) | MIC (Serratia marcescens [9]) | MIC (Serratia marcescens [10]) | MIC (Serratia marcescens [11]) | MIC (Serratia marcescens [12]) | MIC (Serratia marcescens [13]) | MIC (Serratia marcescens [14]) | further results
1 | N=C(NCCCCCCNC(=N)NC(=N)Nc1ccc(Cl)cc1)NC(=N)Nc1ccc(Cl)cc1.O=C(O)[C@H](O)[C@@H](O)[C@H](O)[C@H](O)CO | 25 µg/mL | 100 µg/mL | 3.13 µg/mL | 3.13 µg/mL |  |  |  |  |  |  |  |  |  |  | 
2 | CCCCCCCCCCCC[n+]1ccccc1.[I-] | 100 µg/mL | 100 µg/mL | 6.25 µg/mL | 12.5 µg/mL |  |  |  |  |  |  |  |  |  |  | 
3 | CC1(C)S[C@@H]2[C@H](NC(=O)[C@H](N)c3ccccc3)C(=O)N2[C@H]1C(=O)O [AMPICILLIN] | 100 µg/mL (≈ 286 µM) | 6.25 µg/mL (≈ 17.9 µM) | 6.25 µg/mL (≈ 17.9 µM) | 6.25 µg/mL (≈ 17.9 µM) |  |  |  |  |  |  |  |  |  |  | 
4 | CC1(C)S[C@@H]2[C@H](NC(=O)C(C(=O)O)c3ccccc3)C(=O)N2[C@H]1C(=O)O (stereo not given in full) [CARBENICILLIN] | 6.25 µg/mL (≈ 16.5 µM) | 3.13 µg/mL (≈ 8.27 µM) | 3.13 µg/mL (≈ 8.27 µM) | 3.13 µg/mL (≈ 8.27 µM) | 3.13 µg/mL (≈ 8.27 µM) | 3.13 µg/mL (≈ 8.27 µM) | 6.25 µg/mL (≈ 16.5 µM) | 6.25 µg/mL (≈ 16.5 µM) | 3.13 µg/mL (≈ 8.27 µM) | 6.25 µg/mL (≈ 16.5 µM) | 3.13 µg/mL (≈ 8.27 µM) | 3.13 µg/mL (≈ 8.27 µM) | 3.13 µg/mL (≈ 8.27 µM) | 3.13 µg/mL (≈ 8.27 µM) | 
5 | O=C(N[C@H](CO)[C@H](O)c1ccc([N+](=O)[O-])cc1)C(Cl)Cl [CHLORAMPHENICOL] | 12.5 µg/mL (≈ 38.7 µM) | 100 µg/mL (≈ 309 µM) | 3.13 µg/mL (≈ 9.69 µM) | 3.13 µg/mL (≈ 9.69 µM) | > 400 µg/mL | > 400 µg/mL | 12.5 µg/mL (≈ 38.7 µM) | > 400 µg/mL | > 400 µg/mL | > 400 µg/mL | > 400 µg/mL | 25 µg/mL (≈ 77.4 µM) | > 400 µg/mL | > 400 µg/mL | 
6 | CCn1cc(C(=O)O)c(=O)c2cc(F)c(N3CCNCC3)nc21 [ENOXACIN] | 0.2 µg/mL (≈ 0.624 µM) | 3.13 µg/mL (≈ 9.77 µM) | 0.1 µg/mL (≈ 0.312 µM) | 0.1 µg/mL (≈ 0.312 µM) |  |  |  |  |  |  |  |  |  |  | 
7 | NC[C@H]1O[C@H](O[C@H]2[C@H](O)[C@@H](O[C@H]3O[C@H](CO)[C@@H](O)[C@H](N)[C@H]3O)[C@H](N)C[C@@H]2N)[C@H](O)[C@@H](O)[C@@H]1O [KANAMYCIN] | 1.56 µg/mL (≈ 3.22 µM) | 1.56 µg/mL (≈ 3.22 µM) | > 400 µg/mL | > 400 µg/mL | 1.56 µg/mL (≈ 3.22 µM) | 1.56 µg/mL (≈ 3.22 µM) | 1.56 µg/mL (≈ 3.22 µM) | 1.56 µg/mL (≈ 3.22 µM) |  | 1.56 µg/mL (≈ 3.22 µM) |  | 1.56 µg/mL (≈ 3.22 µM) |  |  | 
8 | CCn1cc(C(=O)O)c(=O)c2cc(F)c(N3CCNC(C)C3)c(F)c21 (stereo not given) [LOMEFLOXACIN] | 0.2 µg/mL (≈ 0.569 µM) | 1.56 µg/mL (≈ 4.44 µM) | 0.05 µg/mL (≈ 0.142 µM) | 0.05 µg/mL (≈ 0.142 µM) | 1.56 µg/mL (≈ 4.44 µM) | 1.56 µg/mL (≈ 4.44 µM) | 0.2 µg/mL (≈ 0.569 µM) | 0.2 µg/mL (≈ 0.569 µM) | 0.05 µg/mL (≈ 0.142 µM) | 0.2 µg/mL (≈ 0.569 µM) | 1.56 µg/mL (≈ 4.44 µM) | 0.78 µg/mL (≈ 2.22 µM) | 0.05 µg/mL (≈ 0.142 µM) | 1.56 µg/mL (≈ 4.44 µM) | 
9 | CCn1cc(C(=O)O)c(=O)c2ccc(C)nc21 [NALIDIXIC ACID] | 12.5 µg/mL (≈ 53.8 µM) | 12.5 µg/mL (≈ 53.8 µM) | 12.5 µg/mL (≈ 53.8 µM) | 12.5 µg/mL (≈ 53.8 µM) |  |  |  |  |  |  |  |  |  |  | 
10 | CCn1cc(C(=O)O)c(=O)c2cc(F)c(N3CCNCC3)cc21 [NORFLOXACIN] | 0.2 µg/mL (≈ 0.626 µM) | 3.13 µg/mL (≈ 9.8 µM) | 0.05 µg/mL (≈ 0.157 µM) | 0.05 µg/mL (≈ 0.157 µM) | 3.13 µg/mL (≈ 9.8 µM) | 3.13 µg/mL (≈ 9.8 µM) | 0.2 µg/mL (≈ 0.626 µM) | 0.2 µg/mL (≈ 0.626 µM) | 0.05 µg/mL (≈ 0.157 µM) | 0.2 µg/mL (≈ 0.626 µM) | 3.13 µg/mL (≈ 9.8 µM) | 0.78 µg/mL (≈ 2.44 µM) | 0.05 µg/mL (≈ 0.157 µM) | 3.13 µg/mL (≈ 9.8 µM) | Drug uptake (Serratia marcescens [15]): 60 a.u.; Drug uptake (Serratia marcescens [16]): 250 a.u.; Drug uptake (Serratia marcescens [17]): 10 a.u.; Drug uptake (Serratia marcescens [18]): 250 a.u.
11 | CC1COc2c(N3CCN(C)CC3)c(F)cc3c(=O)c(C(=O)O)cn1c23 (stereo not given) [OFLOXACIN] | 0.1 µg/mL (≈ 0.277 µM) | 3.13 µg/mL (≈ 8.66 µM) | 0.05 µg/mL (≈ 0.138 µM) | 0.05 µg/mL (≈ 0.138 µM) |  |  |  |  |  |  |  |  |  |  | 
12 | CCn1cc(C(=O)O)c(=O)c2cnc(N3CCNCC3)nc21 [PIPEMIDIC ACID] | 3.13 µg/mL (≈ 10.3 µM) | 25 µg/mL (≈ 82.4 µM) | 0.78 µg/mL (≈ 2.57 µM) | 0.78 µg/mL (≈ 2.57 µM) | 25 µg/mL (≈ 82.4 µM) | 25 µg/mL (≈ 82.4 µM) | 3.13 µg/mL (≈ 10.3 µM) | 3.13 µg/mL (≈ 10.3 µM) | 0.78 µg/mL (≈ 2.57 µM) | 3.13 µg/mL (≈ 10.3 µM) | 12.5 µg/mL (≈ 41.2 µM) | 6.25 µg/mL (≈ 20.6 µM) | 0.78 µg/mL (≈ 2.57 µM) | 12.5 µg/mL (≈ 41.2 µM) | 
13 | CN[C@@H]1[C@H](O[C@H]2[C@H](O[C@H]3[C@H](O)[C@@H](O)[C@H](N=C(N)N)[C@@H](O)[C@@H]3N=C(N)N)O[C@@H](C)[C@]2(O)C=O)O[C@@H](CO)[C@H](O)[C@H]1O [STREPTOMYCIN] | 3.13 µg/mL (≈ 5.38 µM) | 3.13 µg/mL (≈ 5.38 µM) | 1.56 µg/mL (≈ 2.68 µM) | 1.56 µg/mL (≈ 2.68 µM) |  |  |  |  |  |  |  |  |  |  | 
14 | CN(C)[C@@H]1C(O)=C(C(N)=O)C(=O)[C@@]2(O)C(O)=C3C(=O)c4c(O)cccc4[C@@](C)(O)[C@H]3C[C@@H]12 [TETRACYCLINE] | 50 µg/mL (≈ 113 µM) | 100 µg/mL (≈ 225 µM) | 3.13 µg/mL (≈ 7.04 µM) | 3.13 µg/mL (≈ 7.04 µM) | 100 µg/mL (≈ 225 µM) | 100 µg/mL (≈ 225 µM) | 50 µg/mL (≈ 113 µM) | 50 µg/mL (≈ 113 µM) | 3.13 µg/mL (≈ 7.04 µM) | 50 µg/mL (≈ 113 µM) | 50 µg/mL (≈ 113 µM) | 100 µg/mL (≈ 225 µM) | 3.13 µg/mL (≈ 7.04 µM) | 50 µg/mL (≈ 113 µM) | 
15 | GENTAMICIN |  |  |  |  |  |  |  |  |  |  |  |  |  |  | MIC (Serratia marcescens [19]): 1.56 µg/mL; MIC (Serratia marcescens [20]): 1.56 µg/mL; MIC (Serratia marcescens [21]): 1.56 µg/mL; MIC (Serratia marcescens [22]): 1.56 µg/mL
